# PubChem BioAssay AID280 (DTP/NCI, 2004)
# “And” between values parts separate entries of the source, which are not always exact repeats. Identical values can stand only once. Inconclusive results and toxic doses are left out.
# Tested on: nude mice, LOX melanoma ip, survival T/C
# Test: NCI In Vivo Anticancer Drug Screen. Data for tumor model Human Amelanotic Melanoma (LOX) (intraperitoneal) in NU/NU BALB/C (nude) mice
# Details: endpoint: median survival time, higher = longer survival
# Protocol: The antitumor activity of compounds was measured in mice bearing transplantable tumors. Survival or tumor size were measured and the results are expressed as the measurement made in the treated group (T) divided by the measurement made in the vehicle treated control group (C). The tumor model used in this assay is Human Amelanotic Melanoma (LOX) (intraperitoneal) in NU/NU BALB/C (nude) mice
# [1] = dose: 25.0 mg/kg/injection, schedule: Q04DX003 (ip), vehicle: saline with Tween-80
# [2] = dose: 50.0 mg/kg/injection, schedule: Q04DX003 (ip), vehicle: saline with Tween-80
# [3] = dose: 100.0 mg/kg/injection, schedule: Q04DX003 (ip), vehicle: saline with Tween-80
# [4] = dose: 200.0 mg/kg/injection, schedule: Q04DX003 (ip), vehicle: saline with Tween-80
# [5] = dose: 400.0 mg/kg/injection, schedule: Q04DX003 (ip), vehicle: saline with Tween-80
structure (smiles),measurement,setting,value
CN1COc2c(n(C)c(=O)[nH]c2=O)C1,T/C,"dose: 50.0 mg/kg/injection, schedule: Q04DX003 (ip), vehicle: saline",96 % of control
same,T/C,"dose: 50.0 mg/kg/injection, schedule: Q04DX003 (ip), vehicle: suspension in saline",102 % of control
same,T/C,"dose: 100.0 mg/kg/injection, schedule: Q04DX003 (ip), vehicle: saline",91 % of control
same,T/C,"dose: 100.0 mg/kg/injection, schedule: Q04DX003 (ip), vehicle: suspension in saline",104 % of control
same,T/C,"dose: 200.0 mg/kg/injection, schedule: Q04DX003 (ip), vehicle: saline",104 % of control
same,T/C,"dose: 200.0 mg/kg/injection, schedule: Q04DX003 (ip), vehicle: suspension in saline",122 % of control
same,T/C,"dose: 400.0 mg/kg/injection, schedule: Q04DX003 (ip), vehicle: saline",110 % of control
same,T/C,"dose: 400.0 mg/kg/injection, schedule: Q04DX003 (ip), vehicle: suspension in saline",108 % of control
same,T/C,"dose: 800.0 mg/kg/injection, schedule: Q04DX003 (ip), vehicle: saline",120 % of control
same,T/C,"dose: 800.0 mg/kg/injection, schedule: Q04DX003 (ip), vehicle: suspension in saline",108 % of control
O=C(O)CCCc1ccc(N(CCCl)CCCl)cc1,T/C,"dose: 0.2 mg/kg/injection, schedule: Q04DX003 (ip), vehicle: Klucel (hydroxypropylcellulose) (HPC)",90 % of control
same,T/C,"dose: 0.3 mg/kg/injection, schedule: Q04DX003 (ip), vehicle: Klucel (hydroxypropylcellulose) (HPC)",95 % of control
same,T/C,"dose: 12.0 mg/kg/injection, schedule: Q01DX001 (ip), vehicle: Klucel (hydroxypropylcellulose) (HPC)",117 % of control
same,T/C,"dose: 12.0 mg/kg/injection, schedule: Q01DX005 (ip), vehicle: Klucel (hydroxypropylcellulose) (HPC)",213 % of control
same,T/C,"dose: 12.0 mg/kg/injection, schedule: Q01DX015 (ip), vehicle: Klucel (hydroxypropylcellulose) (HPC)",173 % of control
same,T/C,"dose: 12.0 mg/kg/injection, schedule: Q04DX003 (ip), vehicle: Klucel (hydroxypropylcellulose) (HPC)",116 % of control
same,T/C,"dose: 18.0 mg/kg/injection, schedule: Q01DX001 (ip), vehicle: Klucel (hydroxypropylcellulose) (HPC)",161 % of control
same,T/C,"dose: 18.0 mg/kg/injection, schedule: Q01DX005 (ip), vehicle: Klucel (hydroxypropylcellulose) (HPC)",190 % of control
same,T/C,"dose: 18.0 mg/kg/injection, schedule: Q01DX015 (ip), vehicle: Klucel (hydroxypropylcellulose) (HPC)",346 % of control
same,T/C,"dose: 27.0 mg/kg/injection, schedule: Q01DX005 (ip), vehicle: Klucel (hydroxypropylcellulose) (HPC)",346 % of control
same,T/C,"dose: 27.0 mg/kg/injection, schedule: Q01DX015 (ip), vehicle: Klucel (hydroxypropylcellulose) (HPC)",346 % of control
same,T/C,"dose: 27.0 mg/kg/injection, schedule: Q04DX003 (ip), vehicle: Klucel (hydroxypropylcellulose) (HPC)",210 % of control and 248 % of control and 97 % of control
Cc1ccoc1,T/C,[1],94 % of control
same,T/C,[2],95 % of control
same,T/C,[3],102 % of control
same,T/C,[4],95 % of control
same,T/C,[5],96 % of control
CCOC(=O)NC1CCc2cc(OC)c(OC)c(OC)c2-c2ccc(OC)c(=O)cc21 (centres undefined),T/C,"dose: 2.5 mg/kg/injection, schedule: Q04DX003 (ip), vehicle: Klucel (hydroxypropylcellulose) (HPC)",154 % of control
same,T/C,"dose: 5.0 mg/kg/injection, schedule: Q04DX003 (ip), vehicle: Klucel (hydroxypropylcellulose) (HPC)",154 % of control
same,T/C,"dose: 10.0 mg/kg/injection, schedule: Q04DX003 (ip), vehicle: Klucel (hydroxypropylcellulose) (HPC)",178 % of control
same,T/C,"dose: 20.0 mg/kg/injection, schedule: Q04DX003 (ip), vehicle: Klucel (hydroxypropylcellulose) (HPC)",214 % of control
CCOC(=O)N(C)N=NC,T/C,"dose: 7.5 mg/kg/injection, schedule: Q04DX003 (ip), vehicle: saline",108 % of control and 109 % of control
same,T/C,"dose: 15.0 mg/kg/injection, schedule: Q04DX003 (ip), vehicle: saline",107 % of control and 114 % of control (2×)
same,T/C,"dose: 30.0 mg/kg/injection, schedule: Q04DX003 (ip), vehicle: saline",121 % of control
same,T/C,"dose: 60.0 mg/kg/injection, schedule: Q04DX003 (ip), vehicle: saline",194 % of control
same,T/C,"dose: 120.0 mg/kg/injection, schedule: Q04DX003 (ip), vehicle: saline",172 % of control and 191 % of control and 205 % of control
O=C(NNC(=O)c1cccc(C(=O)NNC(=O)c2ccc(Cl)c(Cl)c2)n1)c1ccc(Cl)c(Cl)c1,T/C,[1],103 % of control
same,T/C,[2],119 % of control
same,T/C,"dose: 75.0 mg/kg/injection, schedule: Q04DX003 (ip), vehicle: saline with Tween-80",104 % of control
same,T/C,[3],119 % of control
same,T/C,"dose: 150.0 mg/kg/injection, schedule: Q04DX003 (ip), vehicle: saline with Tween-80",110 % of control
same,T/C,[4],122 % of control
same,T/C,"dose: 300.0 mg/kg/injection, schedule: Q04DX003 (ip), vehicle: saline with Tween-80",204 % of control
same,T/C,[5],116 % of control
same,T/C,"dose: 600.0 mg/kg/injection, schedule: Q04DX003 (ip), vehicle: saline with Tween-80",167 % of control
same,T/C,"dose: 1200.0 mg/kg/injection, schedule: Q04DX003 (ip), vehicle: saline with Tween-80",164 % of control
C/C(=N\NC(=S)N1CC2CCC(CC2)C1)c1nccs1,T/C,"dose: 12.5 mg/kg/injection, schedule: Q04DX003 (ip), vehicle: saline with Tween-80",101 % of control
same,T/C,[1],107 % of control
same,T/C,[2],118 % of control
same,T/C,[3],118 % of control
COc1cc(C(CC(C)=O)c2cc3c(cc2OC(C)=O)OCO3)cc(OC)c1OC (centres undefined) (tested in a mixture with another compound),T/C,[1],104 % of control
same,T/C,[2],106 % of control
same,T/C,[3],115 % of control
same,T/C,[4],120 % of control
CCC(=O)[O][Bi]([c]1ccccc1)[c]1ccccc1,T/C,"dose: 3.13 mg/kg/injection, schedule: Q04DX003 (ip), vehicle: Klucel (hydroxypropylcellulose) (HPC)",93 % of control
same,T/C,"dose: 6.25 mg/kg/injection, schedule: Q04DX003 (ip), vehicle: Klucel (hydroxypropylcellulose) (HPC)",88 % of control
same,T/C,"dose: 12.5 mg/kg/injection, schedule: Q04DX003 (ip), vehicle: Klucel (hydroxypropylcellulose) (HPC)",110 % of control
same,T/C,"dose: 25.0 mg/kg/injection, schedule: Q04DX003 (ip), vehicle: Klucel (hydroxypropylcellulose) (HPC)",100 % of control
CO[C@@]12[C@H](COC(N)=O)C3=C(C(=O)C(C)=C(N)C3=O)N1C[C@@H]1N[C@@H]12,T/C,"dose: 1.34 mg/kg/injection, schedule: Q04DX003 (ip), vehicle: saline",116 % of control
same,T/C,"dose: 1.34 mg/kg/injection, schedule: Q04DX003 (iv), vehicle: saline",119 % of control
same,T/C,"dose: 2.0 mg/kg/injection, schedule: Q04DX003 (ip), vehicle: saline",111 % of control
same,T/C,"dose: 2.0 mg/kg/injection, schedule: Q04DX003 (iv), vehicle: saline",166 % of control
same,T/C,"dose: 3.0 mg/kg/injection, schedule: Q04DX003 (ip), vehicle: saline",272 % of control
same,T/C,"dose: 3.0 mg/kg/injection, schedule: Q04DX003 (iv), vehicle: saline",168 % of control
same,T/C,"dose: 4.5 mg/kg/injection, schedule: Q04DX003 (ip), vehicle: saline",116 % of control
same,T/C,"dose: 4.5 mg/kg/injection, schedule: Q04DX003 (iv), vehicle: saline",150 % of control
CCN(CC)CC(=O)O[C@]1(CC)C(=O)OCc2c1cc1n(c2=O)Cc2cc3ccccc3nc2-1,T/C,"dose: 18.75 mg/kg/injection, schedule: Q04DX003 (ip), vehicle: water",239 % of control
CN1CCN(CN2C(=O)C3C4C=CC(C3C2=O)C2C3C(=O)N(CN5CCN(C)CC5)C(=O)C3C42)CC1 (centres undefined),T/C,"dose: 12.5 mg/kg/injection, schedule: Q04DX003 (ip), vehicle: water",104 % of control
same,T/C,"dose: 25.0 mg/kg/injection, schedule: Q04DX003 (ip), vehicle: water",109 % of control
same,T/C,"dose: 50.0 mg/kg/injection, schedule: Q04DX003 (ip), vehicle: water",110 % of control
same,T/C,"dose: 100.0 mg/kg/injection, schedule: Q04DX003 (ip), vehicle: water",106 % of control
Cc1cc2c(=O)cc(-c3ccccc3)oc2c(C(=O)O)c1C,T/C,"dose: 62.5 mg/kg/injection, schedule: Q04DX003 (ip), vehicle: saline with Tween-80",95 % of control
same,T/C,"dose: 125.0 mg/kg/injection, schedule: Q04DX003 (ip), vehicle: saline with Tween-80",94 % of control
same,T/C,"dose: 250.0 mg/kg/injection, schedule: Q04DX003 (ip), vehicle: saline with Tween-80",90 % of control
CC[C@]1(O)C[C@H]2CN(CCc3c([nH]c4ccccc34)[C@@](C(=O)OC)(c3cc4c(cc3OC)N(C)[C@H]3[C@@](O)(C(=O)OC)[C@H](OC(C)=O)[C@]5(CC)C=CCN6CC[C@]43[C@@H]65)C2)C1,T/C,"dose: 0.44 mg/kg/injection, schedule: Q04DX003 (iv), vehicle: saline",107 % of control
same,T/C,"dose: 0.67 mg/kg/injection, schedule: Q04DX003 (ip), vehicle: saline",110 % of control and 203 % of control
same,T/C,"dose: 0.67 mg/kg/injection, schedule: Q04DX003 (iv), vehicle: saline",112 % of control
same,T/C,"dose: 1.7 mg/kg/injection, schedule: Q04DX003 (ip), vehicle: saline",123 % of control and 203 % of control
same,T/C,"dose: 1.7 mg/kg/injection, schedule: Q04DX003 (iv), vehicle: saline",188 % of control
